{"source": "patent US20240262847A1", "about": "“COVALENT RAS INHIBITORS AND USES THEREOF” (Revolution Medicines, Inc., priority 2021, published 2024)"}
{"molecular_target": "T1, GDP-loaded K-Ras (1-169) G12D, C51S, C80L, C118S (Homo sapiens, UniProt P01116, C118S/C51S/C80L/G12D)", "T1 construct": "GDP-loaded K-Ras (1-169) G12D, C51S, C80L, C118S", "test": "K-Ras G12D(GDP) cross-linking assay (mass spectrometry, percent covalent modification)", "assay_type": "binding", "settings": "at 24 hours, room temperature", "procedure": "(§1) Protocol: K-Ras G12D(GDP) Cross-Linking Assay\n(§2) Note: While the Following Protocol Outlines the Procedure for K-Ras G12D(GDP), a Person of Skill in the Art May Substitute Other Ras Proteins, and May Also Substitute a Non-Hydrolyzable GTP Analog for GDP to Study GTP Bound Ras Protein.\n(§3) GDP-loaded K-Ras (1-169) G12D, C51S, C80L, C118S and GDP-loaded K-Ras (1-169) C51S, C80L, C118S were adjusted to 50 μM in K-Ras assay buffer (12.5 mM HEPES, 75 mM NaCl and 1 mM MgCl2 at pH 7.4). A 5 μL aliquot of each protein solution was added to each well of a 96-well microplate containing 40 μL of assay buffer. Initial compound stocks were prepared in DMSO at 100 times their final assay concentration. Compounds were then diluted 10-fold into K-Ras assay buffer to 10 times their final concentration. A 5 μL aliquot of each diluted compound solution was added to each protein solution in the 96-well microplate to initiate the reaction, which then proceeded at room temperature. Typical final compound concentrations were 2, 10, and 25 μM. At each time point, the reactions were analyzed immediately or quenched with 5 μL of a 5% formic acid solution and kept at 4° C. until analysis. Typical assay endpoints were 1, 6 and 24 h.\n(§4) Data collection took place on an Agilent 6230 TOF Mass Spectrometer. Complete reactions were injected onto a C4 reverse-phase column to separate protein from buffer components prior to entering the mass spectrometer. The proteins were eluted from the column by increasing acetonitrile fraction in the mobile phase and fed directly into the mass analyzer. Initial analysis of raw data took place on Agilent MassHunter BioConfirm software and consisted of deconvolution of multiple protein charge states with the maximum entropy algorithm, with a mass step of 1 Da. The heights of all deconvoluted protein masses were exported for further data analysis. The percent modification of each protein was then determined by calculating the peak height of the covalently modified K-Ras species as a percentage of the sum total of K-Ras protein peak height."}
{"smiles": "Oc1cc(-c2ncc3c(N4C[C@H]5CC[C@@H](C4)N5C[C@H]4CN4)nc(OC[C@@]45CCCN4C[C@H](F)C5)nc3c2F)c2c(F)cccc2c1", "note": "[Compound B3, 4-(4-((1R,5S)-8-(((R)-aziridin-2-yl)methyl)-3,8-diazabicyclo[3.2.1]octan-3-yl)-8-fluoro-2-(((2R,7aS)-2-fluorotetrahydro-1H-pyrrolizin-7a(5H)-yl)methoxy)pyrido[4,3-d]pyrimidin-7-yl)-5-fluoronaphthalen-2-ol]", "cross-linking to K-Ras G12D": "greater than 0%"}
{"molecular_target": "T1, GDP-loaded K-Ras (1-169) G12D, C51S, C80L, C118S", "test": "K-Ras G12D(GDP) cross-linking assay (mass spectrometry, percent covalent modification)", "assay_type": "binding", "settings": "at times up to 24 hours, room temperature", "procedure": "as §1, §2, §3, §4"}
{"smiles": "O=C([C@H]1CN1)N1C=C(c2ncc3c(N4C[C@H]5CC[C@@H](C4)N5)nc(OC[C@@]45CCCN4C[C@H](F)C5)nc3c2F)c2c(F)cccc2C1", "note": "[Compound B23, (4-(4-((1R,5S)-3,8-diazabicyclo[3.2.1]octan-3-yl)-8-fluoro-2-(((2R,7aS)-2-fluorotetrahydro-1H-pyrrolizin-7a(5H)-yl)methoxy)pyrido[4,3-d]pyrimidin-7-yl)-5-fluoroisoquinolin-2(1H)-yl)((R)-aziridin-2-yl)methanone]", "cross-linking to K-Ras G12D": "no cross-linking"}
{"smiles": "O=C([C@@H]1CN1)N1[C@@H]2CC[C@H]1CN(c1nc(OC[C@@]34CCCN3C[C@H](F)C4)nc3c(F)c(-c4cc(O)cc5cccc(F)c45)ncc13)C2", "note": "[Compound B2, ((S)-aziridin-2-yl)((1R,5S)-3-(8-fluoro-7-(8-fluoro-3-hydroxynaphthalen-1-yl)-2-(((2R,7aS)-2-fluorotetrahydro-1H-pyrrolizin-7a(5H)-yl)methoxy)pyrido[4,3-d]pyrimidin-4-yl)-3,8-diazabicyclo[3.2.1]octan-8-yl)methanone]", "cross-linking to K-Ras G12D": "no cross-linking"}
{"smiles": "O=C([C@H]1CN1)N1[C@@H]2CC[C@H]1CN(c1nc(OC[C@@]34CCCN3C[C@H](F)C4)nc3c(F)c(-c4cc(O)cc5cccc(F)c45)ncc13)C2", "note": "[Compound B1, ((R)-aziridin-2-yl)((1R,5S)-3-(8-fluoro-7-(8-fluoro-3-hydroxynaphthalen-1-yl)-2-(((2R,7aS)-2-fluorotetrahydro-1H-pyrrolizin-7a(5H)-yl)methoxy)pyrido[4,3-d]pyrimidin-4-yl)-3,8-diazabicyclo[3.2.1]octan-8-yl)methanone]", "cross-linking to K-Ras G12D": "no cross-linking"}
{"smiles": "O=C([C@@H]1CN1)N1C=C(c2ncc3c(N4C[C@H]5CC[C@@H](C4)N5)nc(OC[C@@]45CCCN4C[C@H](F)C5)nc3c2F)c2c(F)cccc2C1", "note": "[Compound B24, (4-(4-((1R,5S)-3,8-diazabicyclo[3.2.1]octan-3-yl)-8-fluoro-2-(((2R,7aS)-2-fluorotetrahydro-1H-pyrrolizin-7a(5H)-yl)methoxy)pyrido[4,3-d]pyrimidin-7-yl)-5-fluoroisoquinolin-2(1H)-yl)((S)-aziridin-2-yl)methanone]", "cross-linking to K-Ras G12D": "no cross-linking"}
{"smiles": "Oc1cc(-c2ncc3c(N4C[C@H]5CC[C@@H](C4)N5C[C@@H]4CN4)nc(OC[C@@]45CCCN4C[C@H](F)C5)nc3c2F)c2c(F)cccc2c1", "note": "[Compound B4, 4-(4-((1R,5S)-8-(((S)-aziridin-2-yl)methyl)-3,8-diazabicyclo[3.2.1]octan-3-yl)-8-fluoro-2-(((2R,7aS)-2-fluorotetrahydro-1H-pyrrolizin-7a(5H)-yl)methoxy)pyrido[4,3-d]pyrimidin-7-yl)-5-fluoronaphthalen-2-ol]", "cross-linking to K-Ras G12D": "no cross-linking"}
